Data from PubChem BioAssay (NCI).
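Test compounds were applied to cells in 96-well plates for 48 hours at 5 doses. TGI: concentration producing complete growth inhibition.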

Key:
Assay in all cases: growth of human tumour cells (NCI), 48 h
SNB-75 CNS = test system: SNB-75 CNS
NCI-H23 lung = test system: NCI-H23 lung
OVCAR-4 ovarian = test system: OVCAR-4 ovarian
COLO 205 colon = test system: COLO 205 colon
SF-539 CNS = test system: SF-539 CNS
HOP-18 NSCLC = test system: HOP-18 NSCLC
SF-295 CNS = test system: SF-295 CNS
HCT-15 colon = test system: HCT-15 colon
UACC-257 melanoma = test system: UACC-257 melanoma
OVCAR-8 ovarian = test system: OVCAR-8 ovarian
HT29 colon = test system: HT29 colon
HL-60(TB) leukemia = test system: HL-60(TB) leukemia
NCI-H460 lung = test system: NCI-H460 lung
DMS 273 small cell lung = test system: DMS 273 small cell lung
786-0 renal = test system: 786-0 renal
CCRF-CEM leukemia = test system: CCRF-CEM leukemia
TK-10 renal = test system: TK-10 renal
SNB-78 CNS = test system: SNB-78 CNS
DMS 114 small cell lung = test system: DMS 114 small cell lung
A549 NSCLC = test system: A549 NSCLC
SK-MEL-28 melanoma = test system: SK-MEL-28 melanoma
LXFL 529 NSCLC = test system: LXFL 529 NSCLC
M19-MEL melanoma = test system: M19-MEL melanoma
HOP-92 NSCLC = test system: HOP-92 NSCLC
SK-OV-3 ovarian = test system: SK-OV-3 ovarian
M14 melanoma = test system: M14 melanoma
RXF 393 renal = test system: RXF 393 renal
SK-MEL-5 melanoma = test system: SK-MEL-5 melanoma
ACHN renal = test system: ACHN renal
HOP-62 NSCLC = test system: HOP-62 NSCLC
EKVX NSCLC = test system: EKVX NSCLC
KM20L2 colon = test system: KM20L2 colon
IGROV1 ovarian = test system: IGROV1 ovarian
XF 498 CNS = test system: XF 498 CNS
OVCAR-3 ovarian = test system: OVCAR-3 ovarian
HCT-116 colon = test system: HCT-116 colon
RPMI-8226 leukemia = test system: RPMI-8226 leukemia
SN12C renal = test system: SN12C renal
MOLT-4 leukemia = test system: MOLT-4 leukemia
LOX IMVI melanoma = test system: LOX IMVI melanoma
UACC-62 melanoma = test system: UACC-62 melanoma
U251 CNS = test system: U251 CNS
K-562 leukemia = test system: K-562 leukemia
SW-620 colon = test system: SW-620 colon
CAKI-1 renal = test system: CAKI-1 renal
SNB-19 CNS = test system: SNB-19 CNS
HCC-2998 colon = test system: HCC-2998 colon
A498 renal = test system: A498 renal
DLD-1 colon = test system: DLD-1 colon
KM12 colon = test system: KM12 colon
SK-MEL-2 melanoma = test system: SK-MEL-2 melanoma
SF-268 CNS = test system: SF-268 CNS
OVCAR-5 ovarian = test system: OVCAR-5 ovarian
RXF-631 renal = test system: RXF-631 renal
MALME-3M melanoma = test system: MALME-3M melanoma
NCI-H522 lung = test system: NCI-H522 lung
UO-31 renal = test system: UO-31 renal

`O=C1CCC2CCc3cccc4oc1c2c34` (configuration not stated) was tested, and the TGI (SNB-75 CNS) was > 100 µM, the TGI (NCI-H23 lung) was > 100 µM and the TGI (OVCAR-4 ovarian) was > 100 µM. For the same compound, the TGI (COLO 205 colon) was > 100 µM, the TGI (SF-539 CNS) was > 100 µM and the TGI (HOP-18 NSCLC) was > 100 µM. For the same compound, the TGI (SF-295 CNS) was 84.1 µM, the TGI (HCT-15 colon) was > 100 µM and the TGI (UACC-257 melanoma) was > 100 µM. For the same compound, the TGI (OVCAR-8 ovarian) was > 100 µM, the TGI (HT29 colon) was > 100 µM and the TGI (HL-60(TB) leukemia) was > 100 µM. The TGI (NCI-H460 lung) was > 100 µM, the TGI (DMS 273 small cell lung) was > 100 µM and the TGI (786-0 renal) was > 100 µM. For the same compound, the TGI (CCRF-CEM leukemia) was > 100 µM, the TGI (TK-10 renal) was > 100 µM and the TGI (SNB-78 CNS) was > 100 µM. The TGI (DMS 114 small cell lung) was > 100 µM, the TGI (A549 NSCLC) was > 100 µM and the TGI (SK-MEL-28 melanoma) was > 100 µM. For the same compound, the TGI (LXFL 529 NSCLC) was > 100 µM, the TGI (M19-MEL melanoma) was > 100 µM and the TGI (HOP-92 NSCLC) was 98.6 µM. For the same compound, the TGI (SK-OV-3 ovarian) was > 100 µM, the TGI (M14 melanoma) was > 100 µM and the TGI (RXF 393 renal) was > 100 µM. The TGI (SK-MEL-5 melanoma) was > 100 µM, the TGI (ACHN renal) was > 100 µM and the TGI (HOP-62 NSCLC) was > 100 µM. The TGI (EKVX NSCLC) was > 100 µM, the TGI (KM20L2 colon) was > 100 µM and the TGI (IGROV1 ovarian) was > 100 µM. The TGI (XF 498 CNS) was > 100 µM, the TGI (OVCAR-3 ovarian) was > 100 µM and the TGI (HCT-116 colon) was > 100 µM. For the same compound, the TGI (RPMI-8226 leukemia) was > 100 µM, the TGI (SN12C renal) was > 100 µM and the TGI (MOLT-4 leukemia) was > 100 µM. For the same compound, the TGI (LOX IMVI melanoma) was > 100 µM, the TGI (UACC-62 melanoma) was > 100 µM and the TGI (U251 CNS) was > 100 µM. The TGI (K-562 leukemia) was > 100 µM, the TGI (SW-620 colon) was > 100 µM and the TGI (CAKI-1 renal) was > 100 µM. For the same compound, the TGI (SNB-19 CNS) was > 100 µM, the TGI (HCC-2998 colon) was > 100 µM and the TGI (A498 renal) was > 100 µM. The TGI (DLD-1 colon) was > 100 µM.
With `N#CCCN(CCC#N)c1ccc(/C=C2\N=C(COc3ccc(Cl)cc3Cl)OC2=O)cc1` the TGI (SNB-75 CNS) was > 100 µM, the TGI (NCI-H23 lung) was > 100 µM and the TGI (OVCAR-4 ovarian) was > 100 µM. For the same compound, the TGI (COLO 205 colon) was > 100 µM, the TGI (KM12 colon) was > 100 µM and the TGI (SK-MEL-2 melanoma) was > 100 µM. For the same compound, the TGI (SF-539 CNS) was > 100 µM, the TGI (SF-295 CNS) was > 100 µM and the TGI (HCT-15 colon) was > 100 µM. For the same compound, the TGI (UACC-257 melanoma) was > 100 µM, the TGI (OVCAR-8 ovarian) was > 100 µM and the TGI (HT29 colon) was > 100 µM. The TGI (SF-268 CNS) was > 100 µM, the TGI (HL-60(TB) leukemia) was > 100 µM and the TGI (OVCAR-5 ovarian) was > 100 µM. The TGI (NCI-H460 lung) was > 100 µM, the TGI (DMS 273 small cell lung) was > 100 µM and the TGI (786-0 renal) was > 100 µM. For the same compound, the TGI (CCRF-CEM leukemia) was > 100 µM, the TGI (TK-10 renal) was > 100 µM and the TGI (SNB-78 CNS) was > 100 µM. For the same compound, the TGI (DMS 114 small cell lung) was > 100 µM, the TGI (A549 NSCLC) was > 100 µM and the TGI (SK-MEL-28 melanoma) was > 100 µM. For the same compound, the TGI (LXFL 529 NSCLC) was > 100 µM, the TGI (M19-MEL melanoma) was > 100 µM and the TGI (SK-OV-3 ovarian) was > 100 µM. For the same compound, the TGI (M14 melanoma) was > 100 µM, the TGI (SK-MEL-5 melanoma) was > 100 µM and the TGI (HOP-62 NSCLC) was > 100 µM. For the same compound, the TGI (EKVX NSCLC) was > 100 µM, the TGI (RXF-631 renal) was > 100 µM and the TGI (KM20L2 colon) was > 100 µM. For the same compound, the TGI (IGROV1 ovarian) was > 100 µM, the TGI (XF 498 CNS) was > 100 µM and the TGI (MALME-3M melanoma) was > 100 µM. For the same compound, the TGI (OVCAR-3 ovarian) was > 100 µM, the TGI (HCT-116 colon) was > 100 µM and the TGI (RPMI-8226 leukemia) was > 100 µM. The TGI (SN12C renal) was > 100 µM, the TGI (MOLT-4 leukemia) was > 100 µM and the TGI (LOX IMVI melanoma) was > 100 µM. For the same compound, the TGI (UACC-62 melanoma) was > 100 µM, the TGI (U251 CNS) was > 100 µM and the TGI (NCI-H522 lung) was > 100 µM. The TGI (K-562 leukemia) was > 100 µM, the TGI (SW-620 colon) was > 100 µM and the TGI (CAKI-1 renal) was > 100 µM. For the same compound, the TGI (SNB-19 CNS) was > 100 µM, the TGI (HCC-2998 colon) was > 100 µM and the TGI (A498 renal) was > 100 µM. The TGI (DLD-1 colon) was > 100 µM and the TGI (UO-31 renal) was > 100 µM.
